{"source": "patent US20220010279A1", "about": "“KITS AND METHODS FOR PERFORMING OPTICAL DYNAMIC CLAMP ON EXCITABLE CELLS” (CORNELL UNIVERSITY, priority 2018, published 2022)", "tested_on": "iPSC-CMs", "assay": "Paced action potentials (perforated patch clamp; control, EDC or ODC with added IK1) after E-4031 addition", "format": "cell-based, human", "conditions": "for APD90 after E-4031 addition: 500 nM E-4031 perfused 2 minutes, all cells, FIG. 7A", "experimental": "Cor.4U hiPSC-CMs (Axiogenesis, Cologne, Germany) were thawed, seeded, and maintained according to the protocols provided by the manufacturer. The cells were seeded on 0.5% gelatin-coated 8 mm coverslips and plated at 100,000 cells/mL. Cells were incubated for at least 7 days post thaw prior to use for experiments.\nAdenoviral vector was constructed using the Addgene (Cambridge, Mass.) plasmid pAAV-CAG-ArchT-GFP, deposited by K. Deisseroth's laboratory (plasmid 20940) (Ambrosi C M, et al. Methods Mol Biol. 2014, 1181:215-28; Yu J, et al. Methods Mol Biol. 2016, 1408:303-17). ArchT was expressed in iPSC-CMs using MOIs of 250-300, as described in previously published protocols using an adenovirus (Ambrosi C M, et al. Methods Mol Biol. 2014, 1181:215-28; Yu J, et al. Methods Mol Biol. 2016, 1408:303-1). Determination of successful infection was confirmed via eGFP fluorescence. Functionality of ArchT was confirmed by illuminating the cells with an LED (M565L3, ThorLabs) at 595 nm through a 40× objective and observing the amount of hyperpolarization of the membrane potential under current clamp. Stability of IArchT was measured with a voltage and light clamp protocol over time to investigate rundown with ArchT illumination (FIGS. 18A-18B).\nBorosilicate glass pipettes were pulled to a resistance of 1-3 MΩ using a flaming/brown micropipette puller (Model P-1000, Sutter Instrument). The pipettes were filled with intracellular solution containing (mM) 10 NaCl, 130 KCl, 1 MgCl2, 10 CaCl2, 5.5 Dextrose, 10 HEPES. For perforated patch, the pipette was first backfilled by dipping the pipette tip into the intracellular solution for 10 seconds. Only the very tip contained the intracellular solution without any gramicidin to minimize the amount of gramicidin exiting the pipette prior to obtaining a giga-ohm seal. The pipette was then filled with the intracellular solution containing 8 μg/mL gramicidin passed through a 0.25 μm filter. […] The high calcium concentration in the intracellular pipette solution serves to verify the integrity of the patch as patch rupture under these conditions would lead to immediate cell contracture (Ishihara K, et al. J Physiol. 2004, 540(3):831-41). The coverslips containing iPSC-CMs were placed in the bath and constantly perfused with an extracellular solution at 37° C. containing (mM) 137 NaCl, 5.4 KCl, 1 MgSO4, 2 CaCl2, 10 Dextrose, 10 HEPES. GFP-expressing single cells that were visibly contracting were chosen for experiments. Patch-clamp measurements were made by a patch-clamp amplifier (Model 2400, A-M Systems, Inc) controlled by the Real Time eXperiment Interface (RTXI) to coordinate the amplifier via the data acquisition card (PCI-6025E, National Instruments). The voltage was corrected for the calculated liquid junction potential of −2.8 mV. RTXI was also used to control the LED light intensity. The series resistance was less than 10 MΩ and was not compensated.\nTo test the feasibility of using ArchT to inject a target current, stimulated action potentials under the EDC system were compared to those of the ODC platform at three different pacing frequencies: 0.5, 1 and 2 Hz. The cells were stimulated 10 times at 0.5, 1 and 2 Hz sequentially under three conditions (the order of which was randomized): (A) control, in which no additional current was added, (B) addition of Itarget with EDC, and (C) and addition of Itarget with ODC.\nAfter the cells had undergone the aforementioned pacing protocol under the same three conditions, 500 nM E-4031 (a class III antiarrhythmic drug that blocks potassium channels, primarily of the human ether-a-go-go related gene (hERG) type) was perfused into the bath containing the coverslip of iPSC-CMs for 2 minutes. Experiments were again conducted under the same pacing protocol and conditions to measure the effect of IKr inhibition. […]"}
{"smiles": "Cc1cccc(CCN2CCC(C(=O)c3ccc(NS(C)(=O)=O)cc3)CC2)n1", "note": "[E-4031]", "values": [{"measurement": "APD with E-4031 addition", "setting": "500 nM E-4031, example cell 13 paced at 0.5 Hz, control, EDC and ODC conditions, FIG. 6A-C", "result": "increases"}, {"measurement": "drug-induced APD prolongation, control (without dynamic clamp) cells compared to EDC and ODC", "setting": "500 nM E-4031, paced at 0.5 Hz", "result": "more dramatic"}, {"measurement": "triangulation (APD90-APD30), control (without dynamic clamp) cells compared to EDC and ODC", "setting": "500 nM E-4031, paced at 0.5 Hz", "result": "larger"}, {"measurement": "APD90 after E-4031 addition", "setting": "paced at 0.5 Hz, Itarget (IK1) added with EDC", "result": "increased"}, {"measurement": "APD90 after E-4031 addition", "setting": "paced at 0.5 Hz, Itarget (IK1) added with ODC", "result": "increased"}, {"measurement": "APD90 after E-4031 addition", "setting": "paced at 0.5 Hz, control (no current addition)", "result": "increased"}]}
